# Assay results reported in article PMC8041284, “Tunable Methacrylamides for Covalent Ligand Directed Release Chemistry” (Journal of the American Chemical Society, 2021).
# Read-outs that look alike come from different tables or passages of the source. Where a SMILES comes first, the peptide text is derived from it. [ ]: non-standard residue; d: D form. Dip = N[C@H](C(=O)O)C(c1ccccc1)c1ccccc1
# Molecular target: BTK (Homo sapiens, UniProt Q06187)
# Test: biochemical
# [1] = read-out: BTK inhibition (%), 0.75 uM BTK, […] probe 3l, 15 min preincubation
# Chain of BTK (Q06187 402-655 limits assumed): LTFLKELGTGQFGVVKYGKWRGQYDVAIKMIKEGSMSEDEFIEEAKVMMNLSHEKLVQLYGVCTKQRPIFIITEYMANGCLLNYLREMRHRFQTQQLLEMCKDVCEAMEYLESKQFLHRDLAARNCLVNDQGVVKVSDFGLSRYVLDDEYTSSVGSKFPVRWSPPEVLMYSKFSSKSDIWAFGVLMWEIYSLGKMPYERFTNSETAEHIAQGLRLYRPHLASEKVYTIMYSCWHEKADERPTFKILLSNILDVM
Compound,inhibition at 10 µM [1],inhibition at 10 µM (read-out: BTK inhibition (%))
NCc1c[nH]c(=S)n1[C@@H]1CCc2c(F)cc(F)cc2C1 [PCM-0214808],4.7%,–
CC(=O)CC/C=C(\C)CC/C=C(\C)CC/C=C(\C)CCC=C(C)C [PCM-0215116],2.3%,–
COc1ccc(CC2c3cc(OC)c(OC)cc3CC[N+]2(C)CCC(=O)OCCCCCOC(=O)CC[N+]2(C)CCc3cc(OC)c(OC)cc3C2Cc2ccc(OC)c(OC)c2)cc1OC (centres unmarked) [PCM-0085763],-16.3%,–
CC(=O)Oc1cc2c(s1)CCN(C(C(=O)C1CC1)c1ccccc1F)C2 (centres unmarked) [PCM-0095029],-2.3%,–
CC1(C)CCC[C@](C)([C@H]2CC[C@]3(C)[C@@H]2[C@H](O)C[C@@H]2[C@@]4(C)CC[C@H](O)C(C)(C)[C@@H]4[C@H](O)C[C@]23C)O1 [PCM-0215005],-2.8%,–
C[C@@H](O)[C@H]1C(=O)N2C(C(=O)O)=C(S[C@@H]3CN[C@H](C(=O)Nc4cccc(C(=O)O)c4)C3)[C@H](C)[C@H]12 [PCM-0216643],0.8%,–
NC(=O)C[C@H](N)C(=O)O [PCM-0216200],13.6%,–
C[C@H]1[C@H](C)CC[C@]2(C(=O)O)CC[C@]3(C)C(=CC[C@@H]4[C@@]5(C)CCC(=O)C(C)(C)[C@@H]5CC[C@]43C)[C@H]12 [PCM-0215048],7%,–
Cc1c(NC(=O)OC[C@@H]2COCCN2)cn2ncnc(Nc3ccc4c(cnn4Cc4cccc(F)c4)c3)c12 [PCM-0094984],32.4%,–
O=C(/C=C\n1cnc(-c2cc(C(F)(F)F)cc(C(F)(F)F)c2)n1)NNc1ccccn1 [PCM-0215397],-19.3%,–
NC(=O)CN1CCCC1=O [PCM-0064964],-16.3%,–
CC(NC(C)(C)C)C(=O)c1cccc(Cl)c1 (centres unmarked) [PCM-0064429],-3.9%,–
OC[C@H]1O[C@@H](c2ccc(Cl)c(Cc3ccc(O[C@H]4CCOC4)cc3)c2)[C@H](O)[C@@H](O)[C@@H]1O [PCM-0095610],12.4%,–
Cn1ncc(Cl)c1-c1cc(C(=O)N[C@H](CN)Cc2cccc(F)c2)sc1Cl [PCM-0215459],-40%,–
C[C@@H]1CC[C@@]2(OC1)O[C@H]1C[C@H]3[C@@H]4CC=C5C[C@@H](O[C@@H]6O[C@H](CO)[C@@H](O)[C@H](O[C@@H]7O[C@H](CO)[C@@H](O)[C@H](O)[C@H]7O)[C@H]6O[C@@H]6O[C@@H](C)[C@H](O)[C@@H](O)[C@H]6O)CC[C@]5(C)[C@H]4CC[C@]3(C)[C@H]1[C@@H]2C [PCM-0215006],-3.1%,–
C[C@@H]1O[C@@H](O[C@H]2[C@H](Oc3cc(O)c4c(c3)O[C@H](c3ccc(O)cc3)CC4=O)O[C@H](CO)[C@@H](O)[C@@H]2O)[C@H](O)[C@H](O)[C@H]1O [PCM-0088327],-7%,–
N#C/C=C1/C=C[C@@H](O)[C@H](O)[C@H]1O[C@@H]1O[C@H](CO)[C@@H](O)[C@H](O)[C@H]1O [PCM-0216369],-11.6%,–
N[C@@H]1CONC1=O [PCM-0064462],-11.9%,–
CCOC(=O)/C=C/c1ccc(O)c(OC)c1 [PCM-0215040],-8.3%,–
CC[C@@H]1C(=O)N(C)c2cnc(Nc3ccc(C(=O)NC4CCC(N5CCN(CC6CC6)CC5)CC4)cc3OC)nc2N1C(C)C (some centres unmarked) [PCM-0095279],-14.5%,–
CNC(=O)[C@H](Cc1ccccc1)NC(=O)[C@H](CC(C)C)[C@H](CSc1cccs1)C(=O)NO [PCM-0215194],11.6%,–
O=c1[nH]c2ccccc2n1CCCN1CCC(n2c(=O)[nH]c3cc(Cl)ccc32)CC1 [PCM-0065112],5.4%,–
COc1cc(O)c(C(=O)/C=C/c2ccccc2)c(OC)c1 [PCM-0216315],6.9%,–

Compound,inhibition at 10 µM [1],inhibition at 10 µM (read-out: BTK inhibition (%))
Cc1[nH]c2ccccc2c1CCNC(=O)c1cccs1 [PCM-0095767],-6.9%,–
COc1cc(F)c(C(C)C)cc1-c1ccc(C(F)(F)F)cc1CN1C(=O)O[C@H](c2cc(C(F)(F)F)cc(C(F)(F)F)c2)[C@@H]1C [PCM-0095486],22.6%,–
CC(C)N(CCNC(=O)CN1CCCC1=O)C(C)C [PCM-0095202],1.6%,–
COc1ccc2cc3[n+](cc2c1O)CCc1cc2c(cc1-3)OCO2 [PCM-0216489],97.3%,–
Nc1nc(N)c2nc(-c3cccc(O)c3)c(-c3cccc(O)c3)nc2n1 [PCM-0094971],55.2%,–
COCC1(CO)C(=O)C2CCN1CC2 (centres unmarked) [PCM-0215751],0%,–
CCOc1cc([C@@H](CS(C)(=O)=O)N2C(=O)c3cccc(NC(C)=O)c3C2=O)ccc1OC [PCM-0095620],9%,–
Clc1ccc(CCC(Cn2ccnc2)Sc2c(Cl)cccc2Cl)cc1 (centres unmarked) [PCM-0085946],37.4%,–
NCCS(=O)(=O)O [PCM-0064776],-6%,–
Cc1ccc2c(=O)c3cccc(CC(=O)O)c3oc2c1C [PCM-0095095],-7.8%,–
CO/N=C(\C(=O)N[C@@H]1C(=O)N2C(C(=O)O)=C(Cn3ccc(=N)n3CCO)CS[C@H]12)c1csc(N)n1 [PCM-0215184],9.4%,–
Cn1c2ccccc2c2c3c(c4c5ccccc5n(CCC#N)c4c21)CNC3=O [PCM-0215344],5.5%,–
C=C1C[C@@]23CC[C@H]4[C@@](C)(CCC[C@@]4(C)C(=O)O)[C@@H]2CC[C@@H]1C3 [PCM-0216330],-3.9%,–
Cc1onc(-c2c(F)cccc2Cl)c1C(=O)N[C@@H]1C(=O)N2[C@@H]1SC(C)(C)[C@@H]2C(=O)O [PCM-0216122],-1.6%,–
CC(=O)O[C@]1(C(C)=O)CC[C@H]2[C@@H]3C=C(Cl)C4=CC(=O)[C@@H]5C[C@@H]5[C@]4(C)[C@H]3CC[C@@]21C [PCM-0214712],21%,–
O=C1O[C@H]2[C@@H]3OC(=O)c4cc(O)c(O)c(O)c4-c4c(cc(O)c(O)c4O)C(=O)OC[C@H]2O[C@@H](OC(=O)c2cc(O)c(O)c(O)c2)[C@@H]3OC(=O)c2cc(O)c(O)c3c2[C@@H]2C1=CC(=O)[C@](O)(O3)C2(O)O [PCM-0216302],0%,–
Cc1cn(CCN2CCN(c3ccccc3-c3cc(C#N)cc(C(=O)NCCCN4CCCC4)c3)CC2)c2ccccc12 [PCM-0215709],27%,–
CN(C)C(=O)COC(=O)Cc1ccc(OC(=O)c2ccc(N=C(N)N)cc2)cc1 [PCM-0095541],-6.2%,–
COc1c(N2CCNC(C)C2)c(F)cc2c(=O)c(C(=O)O)cn(C3CC3)c12 (centres unmarked) [PCM-0086315],-40.5%,–
CC(CNC(=O)c1cccnc1)NC(=O)c1cccnc1 (centres unmarked) [PCM-0214789],-8.6%,–
CN[C@H]1CC[C@@H](c2ccc(Cl)c(Cl)c2)c2ccccc21 [PCM-0064965],-19.5%,–
CO[C@H]1/C=C/O[C@@]2(C)Oc3c(C)c(O)c4c(O)c(c5c(nc6cc(C)ccn65)c4c3C2=O)NC(=O)/C(C)=C\C=C\[C@H](C)[C@H](O)[C@@H](C)[C@@H](O)[C@@H](C)[C@H](OC(C)=O)[C@@H]1C [PCM-0086183],10.1%,–
C=C1CC[C@H]2[C@@H](/C=C(\C)C(=O)[C@@]3(OC(C)=O)C[C@H](C)[C@H](OC(=O)c4ccccc4)[C@@H]3[C@H]1OC(C)=O)C2(C)C [PCM-0216520],–,-20.1%

Compound,inhibition at 10 µM [1],inhibition at 10 µM (read-out: BTK inhibition (%))
C[C@@H]1CC[C@]2(C(=O)O[C@@H]3O[C@H](CO)[C@@H](O)[C@H](O)[C@H]3O)CC[C@]3(C)C(=CC[C@@H]4[C@@]5(C)CC[C@H](O)[C@@](C)(CO)[C@@H]5CC[C@]43C)[C@@H]2[C@]1(C)O [PCM-0216572],-2.3%,–
NCCCC[C@H](NC(=O)[C@@H](NC(=O)[C@H](Cc1c[nH]c2ccccc12)NC(=O)[C@H](CCCCN)NC(=O)[C@H](CCCCN)NC(=O)[C@H](Cc1c[nH]c2ccccc12)NC(=O)[C@H](Cc1c[nH]c2ccccc12)NC(=O)[C@H](CCCCN)NC(=O)[C@@H](N)CCCCN)C(c1ccccc1)c1ccccc1)C(N)=O [PCM-0215623] (H-KKWWKKW[Dip]K-NH2),-11.1%,–
C[C@@H](Oc1cc(-n2cnc3ccc(CN4CCN(C)CC4)cc32)sc1C(N)=O)c1ccccc1C(F)(F)F [PCM-0095237],0.7%,–
CC1(C)CC[C@]2(C(=O)O)CC[C@]3(C)C(=CC[C@@H]4[C@@]5(C)CC[C@H](O)C(C)(C)[C@@H]5CC[C@]43C)[C@@H]2C1 [PCM-0214680],27.2%,–
Cc1cc(C)nc(NS(=O)(=O)c2ccc(NC(=S)NC(=O)COc3ccc(Br)cc3Cl)cc2)n1 [PCM-0095801],59.5%,–
CN(C)CCOC(c1ccccc1)c1ccccc1 [PCM-0065230],2.1%,–
COC(=O)C1=C(C#N)NC(C)=C(C(=O)OC(C)C)C1c1cccc([N+](=O)[O-])c1 (centres unmarked) [PCM-0086361],14.8%,–
CCN(CC)CCOC(=O)c1ccc(N)cc1Cl [PCM-0214797],-1.6%,–
COc1cc(O)cc(O)c1C(=O)C=Cc1ccccc1 [PCM-0214685],12.5%,–
CC1(C)OCCn2c1nc1c(N3CCOCC3)nc(-c3cnc(N)nc3)nc12 [PCM-0215737],37.9%,–
O=C(C1CCCCC1)N1CC(=O)N2CCc3ccccc3C2C1 (centres unmarked) [PCM-0064807],-5.4%,–
O=C1c2cccc3c2[C@H](CCC3)CN1[C@@H]1CN2CCC1CC2 [PCM-0095539],4.3%,–
NCC(=O)Nc1ccc(-n2nc(C(F)(F)F)cc2-c2ccc3c(ccc4ccccc43)c2)cc1 [PCM-0094886],70.3%,–
CCCCS(=O)(=O)N[C@@H](Cc1ccc(OCCCCC2CCNCC2)cc1)C(=O)O [PCM-0215839],-1.5%,–
NC(=O)c1ccc(-c2nc(-c3ccc4c(c3)OCCO4)c(-c3ccccn3)[nH]2)cc1 [PCM-0215472],17.2%,–
Cc1cc(C)c(CNC(=O)c2cc(-c3ccc(N4CCN(C)CC4)nc3)cc3c2c(C)cn3C(C)C)c(=O)[nH]1 [PCM-0215513],-6.9%,–
C[C@H](CCC(=O)NCCS(=O)(=O)O)[C@H]1CC[C@H]2[C@@H]3[C@H](O)C[C@@H]4C[C@H](O)CC[C@]4(C)[C@H]3CC[C@]12C [PCM-0215035],-0.8%,–
C=C(C)[C@@H]1CCC2=CC(=O)C[C@@H](C)[C@]2(C)C1 [PCM-0216368],12.4%,–
Oc1ccc2ccccc2c1SSc1c(O)ccc2ccccc12 [PCM-0065009],17.2%,–
CCCCCCCCCCCCc1ccc(S(=O)(=O)Nc2nncs2)cc1 [PCM-0095111],53.8%,–
CNCc1ccc(-c2[nH]c3cc(F)cc4c3c2CCNC4=O)cc1 [PCM-0095075],18.6%,–
O=C(NCCS(=O)(=O)c1ccc(C(F)(F)F)cn1)c1ccc(Cl)cc1 [PCM-0007384],16.6%,–
